Entries after “also recorded” stand apart in the source; their conditions may differ. Like-named read-outs stand apart in the source and are kept apart here. Numbered stars: 1 amine (or outer) side, 2 acyl side, 3 side chain; on linkers, the order of the positions; unused ones are H or OH. Bridge positions count the residues as written; N and C are the ends. Square brackets hold non-standard residues; d marks the D form. Peptide text beside a SMILES is read from it. * marks the point of attachment. Benzothiophen(2-yl)carbonyl = O=C(c1cc2ccccc2s1)*; X2 = CC[C@H](C)[C@@H](N[*:1])[C@@H](O)CC(=O)[*:2]; NMeY = CN[C@@H](Cc1ccc(O)cc1)C(=O)O; dNMeL = CN[C@H](CC(C)C)C(=O)O; Tos = Cc1ccc(S(=O)(=O)*)cc1; Hiv = CC(C)[C@H](O)C(=O)O; Aib = CC(C)(N)C(=O)O
Columns and labels:
C-reactive protein = C-reactive protein tests in COVID-19 patients treated with PLD; format: in vivo, human
Experimental: The effect of PLD on inflammatory cytokines was also measured for patients 5, 7 and 9 and the results of C-reactive protein tests are shown in FIG. 36.

SARS-CoV-2 (COVID-19) = assay: Study APLICOV-PC (NCT04382066): efficacy in patients hospitalised for COVID-19; format: in vivo, human
HCoV-229E = format: cell-based
in vitro = conditions: human
[1] = system: HIV-1 (recombinant virus NL4.3 Luc); assay: microbe, parasite or virus in culture; format: cell-based
[2] = system: HIV-1 (recombinant virus NL4.3 Luc); assay: microbe, parasite or virus in culture; format: cell-based; conditions: for IC50: Human immunodeficiency virus 1, PBMC
[3] = interim results, 8 evaluable patients
[4] = Huh-7, 50 nM, 5 nM and 0.5 nM, 24 hpi

CC[C@H](C)[C@H]1NC(=O)[C@@H](NC(=O)C(CC(C)C)N(C)C(=O)[C@@H]2CCCN2C(=O)C(C)=O)[C@@H](C)OC(=O)[C@H](Cc2ccc(OC)cc2)N(C)C(=O)[C@@H]2CCCN2C(=O)[C@H](CC(C)C)NC(=O)[C@@H](C)C(=O)[C@H](C(C)C)OC(=O)C[C@@H]1O (stereo in doubt) [PLD, (−)-(3S,6R,7S,10R,11S,15S,17S,20S,25aS)-11-hydroxy-3-(4-methoxybenzyl)-2,6,17-trimethyl-15-(1-methylethyl)-7-[[(2R)-4-methyl-2-[methyl[[(2S)-1-(2-oxopropanoyl)pyrrolidin-2-yl]carbonyl]amino]pentanoyl]amino]-10-[(1S)-1-methylpropyl]-20-(2-methylpropyl)tetradecahydro-15H-pyrrolo[2,1-f]-[1,15,4,7,10,20]dioxatetrazacyclotricosine-1,4,8,13,16,18,21(17H)-heptone]
Acute fall of C-reactive protein seen by day (C-reactive protein; patient 5 (PLD 1.5 mg×3)): ≤ 2 days | Acute fall of C-reactive protein seen by day (C-reactive protein; patients 7 and 9 (PLD 2.0 mg×3)): ≤ 3 days | Clinical course (single patient) (SARS-CoV-2 (COVID-19); PLD 1.5 mg×3, interim results): Acute clinical improvement; also recorded: lack of improvement; also recorded: prevented clinical deterioration; also recorded: Major clinical improvement | Clinical course (single patient) (SARS-CoV-2 (COVID-19); PLD 2.0 mg×3, interim results): major clinical improvement | PCR COVID 19 test at day 7 (single patient) (SARS-CoV-2 (COVID-19); PLD 2.0 mg×3, interim results): still positive | Removal of viral burden (SARS-CoV-2 (COVID-19); ad hoc analysis of the first cohort at 1.5 mg and 2 mg): complete removal of viral burden was noted in the vast majority of patients | Evaluable patients requiring post PLD specific anti COVID 19 therapy (SARS-CoV-2 (COVID-19); [3]): 2 out of 8 | Evaluable patients with SARS-CoV-2 PCR conversion to negative (SARS-CoV-2 (COVID-19); [3]): 6 out of 8 | Evaluable patients with disease control and major clinical improvements (SARS-CoV-2 (COVID-19); [3]): 6 out of 8 | Deaths on study (SARS-CoV-2 (COVID-19); interim results, 9 patients): no deaths on study | Need for mechanical ventilation or ICU admission (SARS-CoV-2 (COVID-19); interim results, 9 patients): none of the patients required mechanical ventilation or ICU admission | Cell growth / viability (fluorescence images) (Huh-7 cells; [4]): cells remain viable at all concentrations | Antiviral activity (fluorescence images) (HCoV-229E): remarkable antiviral properties are seen across all concentrations

CC[C@H](C)[C@H]1NC(=O)[C@@H](NC(=O)[C@@H](CC(C)C)NC)[C@@H](C)OC(=O)[C@H](Cc2ccc(OC)cc2)N(C)C(=O)[C@@H]2CCCN2C(=O)[C@H](CC(C)C)NC(=O)C(C)(C)NC(=O)C[C@@H]1O [Compound 3] (H-[dNMeL]T[X2][Aib]LP[NMeY](Me); ester 2-C)
CC50 (in vitro): ~27 µM | IC50 ([1]; Human immunodeficiency virus 1, MT2, read-out: IC50 (antiviral activity), MT-2 cells infected with NL4.3 Luc, 48 hours): 1390 nM | IC50 ([2]; read-out: IC50 (antiviral activity), preactivated PBMCs infected with NL4.3 Luc, 48 hours): 160 nM | Toxic concentrations not reached at (MT-2 cells): > 57.3 µM

CC[C@H](C)[C@H]1NC(=O)[C@@H](NC(=O)[C@H](CC(C)C)N(C)C(=O)[C@@H]2CCCN2C(=O)C(C)=O)[C@@H](C)OC(=O)[C@H](Cc2ccc(OC)cc2)N(C)C(=O)[C@@H]2CCCN2C(=O)[C@H](CC(C)C)NC(=O)[C@@H](C)C(=O)[C@H](C(C)C)OC(=O)C[C@@H]1O [Compound 8]
Antiviral activity ([1]; MT-2 cells): showed also antiviral activity | IC50 value, fold lower than the specific concentration of 10 μM ([1]; MT-2 cells and PBMCs, not told apart): 100 fold | Specificity of antiviral activity ([1]; at 10 μM, MT-2 cells and PBMCs, not told apart): specific | Specificity of antiviral activity ([1]; at 50 μM, MT-2 cells and PBMCs, not told apart): non-specific | Antiviral activity ([2]; PBMCs): showed also antiviral activity

CC[C@H](C)[C@H]1NC(=O)[C@@H](NC(=O)[C@@H](CC(C)C)N(C)C(=O)[C@@H]2CCCN2C(=O)[C@H](C)NC(=O)[C@@H](Cc2ccccc2)NC(=O)OC(C)(C)C)[C@@H](C)OC(=O)[C@H](Cc2ccc(OC)cc2)N(C)C(=O)[C@@H]2CCCN2C(=O)[C@H](CC(C)C)NC(=O)[C@@H](C)C(=O)[C@H](C(C)C)OC(=O)C[C@@H]1O [Compound 9]
Cell growth / viability (fluorescence images) (Huh-7 cells): cells remain viable at all concentrations | IC50 ([2]; PBMCs, read-out: IC50): 0.63 nM | Antiviral activity (fluorescence images) (HCoV-229E): remarkable antiviral properties are seen across all concentrations

CC[C@H](C)[C@H]1NC(=O)[C@@H](NC(=O)[C@@H](CC(C)C)N(C)C(=O)c2cc3ccccc3s2)[C@@H](C)OC(=O)[C@H](Cc2ccc(OC)cc2)N(C)C(=O)[C@@H]2CCCN2C(=O)[C@H](CC(C)C)NC(=O)[C@H](C(C)C)OC(=O)C[C@@H]1O [Compound 10] ({Benzothiophen(2-yl)carbonyl}-[dNMeL]T[X2][Hiv]LP[NMeY](Me); ester 2-C)
Cell growth / viability (fluorescence images) (Huh-7 cells; [4]): cells remain viable at all concentrations | IC50 [2]: 0.86 nM | Antiviral activity (fluorescence images) (HCoV-229E): remarkable antiviral properties are seen across all concentrations

CC[C@H](C)[C@H]1NC(=O)[C@@H](NC(=O)[C@@H](CC(C)C)N(C)S(=O)(=O)c2ccc(C)cc2)[C@@H](C)OC(=O)[C@H](Cc2ccc(OC)cc2)N(C)C(=O)[C@@H]2CCCN2C(=O)[C@H](CC(C)C)NC(=O)[C@H](C(C)C)OC(=O)C[C@@H]1O [Compound 11] (Tos-[dNMeL]T[X2][Hiv]LP[NMeY](Me); ester 2-C)
IC50 [2]: 69.4 nM

Source: US20230158102A1 (priority 2020, published 2023)
